Results reported in article PMC5179006, “Procarcinogens – Determination and Evaluation by Yeast-Based Biosensor Transformed with Plasmids Incorporating RAD54 Reporter Construct and Cytochrome P450 Genes” (PLoS ONE, 2016).
Like-named read-outs stand apart in the source and are kept apart here.

What was measured:
[1] = tested on: CYP3A4 + RAD54 system (CPR-CYP3A4 and RAD54-GFP constructs)
[2] = tested on: RAD54 system (only the RAD54-GFP construct)
[3] = tested on: CYP2B6 + RAD54 system (CPR-CYP2B6 and RAD54-GFP constructs)
[4] = tested on: RAD54-GFP integrant + CYP1A2; details: cited from earlier work
[5] = tested on: CYP2D6 + RAD54 system (CPR-CYP2D6 and RAD54-GFP constructs)
[6] = tested on: NCs system (control pESC-URA and pUMGP5 plasmids)
recombinant human CYP2D6 = recombinant human CYP2D6 (Homo sapiens, UniProt P10635); experiment: CYP activity assay, deethylation of fluorogenic substrate by microsomes of 2D6+ clone; details: 2D6+ clone microsomes, nonlinear regression
CYP3A4 = experiment: in vitro; details: human, pH 7.4, Km, 3A4+ clone microsomes; nonlinear regression; substrate 1–100 μM, 37°C
recombinant human CYP3A4 = details: 3A4+ clone microsomes; nonlinear regression
CYP2B6 [7] = molecular target: T1, CYP2B6 (Homo sapiens, UniProt P20813); experiment: in vitro; details: pH 7.4, Km, 2B6+ clone microsomes, nonlinear regression, substrate 1–100 μM, 37°C
T1 sequence (P20813 whole entry): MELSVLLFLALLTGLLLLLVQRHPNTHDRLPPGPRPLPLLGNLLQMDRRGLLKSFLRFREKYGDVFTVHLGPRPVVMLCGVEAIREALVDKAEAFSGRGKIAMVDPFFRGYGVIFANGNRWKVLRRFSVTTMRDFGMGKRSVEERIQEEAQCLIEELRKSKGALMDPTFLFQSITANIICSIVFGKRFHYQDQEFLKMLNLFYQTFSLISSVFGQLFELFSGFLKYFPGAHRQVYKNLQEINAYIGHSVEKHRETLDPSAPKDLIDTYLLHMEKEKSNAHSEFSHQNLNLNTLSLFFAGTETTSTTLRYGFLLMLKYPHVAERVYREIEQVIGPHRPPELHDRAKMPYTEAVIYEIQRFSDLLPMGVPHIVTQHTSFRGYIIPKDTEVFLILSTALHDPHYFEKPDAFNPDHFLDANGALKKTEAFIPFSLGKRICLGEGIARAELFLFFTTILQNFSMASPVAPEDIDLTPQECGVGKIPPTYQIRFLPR

CYP2B6 [8] = molecular target: T1, CYP2B6; details: 2B6+ clone microsomes; nonlinear regression
[9] = tested on: RAD54-GFP integrant + CYP3A4; details: cited from earlier work
RAD54-GFP integrant = details: concentration 1.02–33 μg/mL; ref Walsh et al. 2005 [30]; cited from earlier work
in vitro = details: Saccharomyces cerevisiae
[10] = substrate: CCOc1ccc2cc(C#N)c(=O)oc2c1; experiment: cells, lysate or membranes named; details: other: 2D6+ clone microsomes, nonlinear regression, substrate 1–100 μM, 37°C
[11] = concentration 1.02–33 μg/mL, ref Walsh et al. 2005 [30]

## aflatoxin B1
[1]
  Genotoxicity result, present study, CYP3A4 + RAD54: +
[1]; 0.1 µM
  GFP fold induction signal, CYP3A4 + RAD54: + (key: Negative (≤1.3 GFP fold induction),–; positive (>1.3 GFP fold induction), + (1.3, 2]; ++ (2, 3]; +++ (3, 4]; ++++ (4, ∞])
[1]; 0.2 µM
  GFP fold induction signal, CYP3A4 + RAD54: ++ (key: Negative (≤1.3 GFP fold induction),–; positive (>1.3 GFP fold induction), + (1.3, 2]; ++ (2, 3]; +++ (3, 4]; ++++ (4, ∞])
[1]; 0.4 µM
  GFP fold induction signal, CYP3A4 + RAD54: ++ (key: Negative (≤1.3 GFP fold induction),–; positive (>1.3 GFP fold induction), + (1.3, 2]; ++ (2, 3]; +++ (3, 4]; ++++ (4, ∞])
[2]
  GFP fold induction: ≤ 1.3
[2]; 0.1 µM
  GFP fold induction signal, RAD54: – (key: Negative (≤1.3 GFP fold induction),–; positive (>1.3 GFP fold induction), + (1.3, 2]; ++ (2, 3]; +++ (3, 4]; ++++ (4, ∞])
[2]; 0.2 µM
  GFP fold induction signal, RAD54: – (key: Negative (≤1.3 GFP fold induction),–; positive (>1.3 GFP fold induction), + (1.3, 2]; ++ (2, 3]; +++ (3, 4]; ++++ (4, ∞])
[2]; 0.4 µM
  GFP fold induction signal, RAD54: – (key: Negative (≤1.3 GFP fold induction),–; positive (>1.3 GFP fold induction), + (1.3, 2]; ++ (2, 3]; +++ (3, 4]; ++++ (4, ∞])
[3]
  Genotoxicity result, present study, CYP2B6 + RAD54: +
[3]; 0.1 µM
  GFP fold induction signal, CYP2B6 + RAD54: – (key: Negative (≤1.3 GFP fold induction),–; positive (>1.3 GFP fold induction), + (1.3, 2]; ++ (2, 3]; +++ (3, 4]; ++++ (4, ∞])
[3]; 0.2 µM
  GFP fold induction signal, CYP2B6 + RAD54: – (key: Negative (≤1.3 GFP fold induction),–; positive (>1.3 GFP fold induction), + (1.3, 2]; ++ (2, 3]; +++ (3, 4]; ++++ (4, ∞])
[3]; 0.4 µM
  GFP fold induction signal, CYP2B6 + RAD54: + (key: Negative (≤1.3 GFP fold induction),–; positive (>1.3 GFP fold induction), + (1.3, 2]; ++ (2, 3]; +++ (3, 4]; ++++ (4, ∞])
[4]
  Genotoxicity result, published report, RAD54-GFP integrant + CYP1A2: +
[5]; 0.1 µM
  GFP fold induction signal, CYP2D6 + RAD54: – (key: Negative (≤1.3 GFP fold induction),–; positive (>1.3 GFP fold induction), + (1.3, 2]; ++ (2, 3]; +++ (3, 4]; ++++ (4, ∞])
[5]; 0.2 µM
  GFP fold induction signal, CYP2D6 + RAD54: – (key: Negative (≤1.3 GFP fold induction),–; positive (>1.3 GFP fold induction), + (1.3, 2]; ++ (2, 3]; +++ (3, 4]; ++++ (4, ∞])
[5]; 0.4 µM
  GFP fold induction signal, CYP2D6 + RAD54: – (key: Negative (≤1.3 GFP fold induction),–; positive (>1.3 GFP fold induction), + (1.3, 2]; ++ (2, 3]; +++ (3, 4]; ++++ (4, ∞])
[6]; 0.1 µM
  GFP fold induction signal, NCs: – (key: Negative (≤1.3 GFP fold induction),–; positive (>1.3 GFP fold induction), + (1.3, 2]; ++ (2, 3]; +++ (3, 4]; ++++ (4, ∞])
[6]; 0.2 µM
  GFP fold induction signal, NCs: – (key: Negative (≤1.3 GFP fold induction),–; positive (>1.3 GFP fold induction), + (1.3, 2]; ++ (2, 3]; +++ (3, 4]; ++++ (4, ∞])
[6]; 0.4 µM
  GFP fold induction signal, NCs: – (key: Negative (≤1.3 GFP fold induction),–; positive (>1.3 GFP fold induction), + (1.3, 2]; ++ (2, 3]; +++ (3, 4]; ++++ (4, ∞])

## CCOc1ccc2cc(C#N)c(=O)oc2c1 [7-ethoxycoumarin-3-carbonitrile]
Recombinant human CYP2D6
  Vmax: ~ 4.7 pmol/pmol CYP/min
Recombinant human CYP2D6; substrate 1–100 μM, 37°C
  Km: ~2.1 µM
CYP3A4
  Km: 3.5 µM
Recombinant human CYP3A4
  Vmax: 3.2 pmol/pmol CYP/min
CYP2B6 [7]
  Km: 3.7 µM
CYP2B6 [8]
  Vmax: 2.7 pmol/pmol CYP/min

## N-nitrosodimethylamine
[1]
  GFP fold induction signal, CYP3A4 + RAD54: – (key: Negative (≤1.3 GFP fold induction),–; positive (>1.3 GFP fold induction), + (1.3, 2]; ++ (2, 3]; +++ (3, 4]; ++++ (4, ∞])
[9]
  Genotoxicity result, published report, RAD54-GFP integrant + CYP3A4: +
[2]
  GFP fold induction: ≤ 1.3
  GFP fold induction signal, RAD54: – (key: Negative (≤1.3 GFP fold induction),–; positive (>1.3 GFP fold induction), + (1.3, 2]; ++ (2, 3]; +++ (3, 4]; ++++ (4, ∞])
[3]
  Genotoxicity result, present study, CYP2B6 + RAD54: +
[5]
  GFP fold induction signal, CYP2D6 + RAD54: – (key: Negative (≤1.3 GFP fold induction),–; positive (>1.3 GFP fold induction), + (1.3, 2]; ++ (2, 3]; +++ (3, 4]; ++++ (4, ∞])
[6]
  GFP fold induction signal, NCs: – (key: Negative (≤1.3 GFP fold induction),–; positive (>1.3 GFP fold induction), + (1.3, 2]; ++ (2, 3]; +++ (3, 4]; ++++ (4, ∞])

## COS(C)(=O)=O [Methyl methanesulfonate, methyl methanesulfonate]
[1]; 25 μM, 16 h at 30°C
  GFP fold induction signal, CYP3A4 + RAD54: + (positive (>1.3 GFP fold induction), + (1.3, 2])
[1]; 50 μM, 16 h at 30°C
  GFP fold induction signal, CYP3A4 + RAD54: +++ (+++ (3, 4])
[1]; 100 μM, 16 h at 30°C
  GFP fold induction signal, CYP3A4 + RAD54: ++++ (++++ (4, ∞])
[1]; concentration 2.75–11.01 μg/mL
  Genotoxicity result, present study, CYP3A4 + RAD54: +
[9]; [11]
  Genotoxicity result, published report, RAD54-GFP integrant + CYP3A4: +
RAD54-GFP integrant
  Genotoxicity result, published report, RAD54-GFP integrant: +
[2]; 25 μM, 16 h at 30°C
  GFP fold induction signal, RAD54: + (positive (>1.3 GFP fold induction), + (1.3, 2])
[2]; 50 μM, 16 h at 30°C
  GFP fold induction signal, RAD54: +++ (+++ (3, 4])
[2]; 100 μM, 16 h at 30°C
  GFP fold induction signal, RAD54: ++++ (++++ (4, ∞])
[2]; concentration 2.75–11.01 μg/mL
  Genotoxicity result, present study, RAD54: +
[3]; 25 μM, 16 h at 30°C
  GFP fold induction signal, CYP2B6 + RAD54: + (positive (>1.3 GFP fold induction), + (1.3, 2])
[3]; 50 μM, 16 h at 30°C
  GFP fold induction signal, CYP2B6 + RAD54: +++ (+++ (3, 4])
[3]; 100 μM, 16 h at 30°C
  GFP fold induction signal, CYP2B6 + RAD54: ++++ (++++ (4, ∞])
[3]; concentration 2.75–11.01 μg/mL
  Genotoxicity result, present study, CYP2B6 + RAD54: +
[4]; [11]
  Genotoxicity result, published report, RAD54-GFP integrant + CYP1A2: +
[5]; 25 μM, 16 h at 30°C
  GFP fold induction signal, CYP2D6 + RAD54: + (positive (>1.3 GFP fold induction), + (1.3, 2])
[5]; 50 μM, 16 h at 30°C
  GFP fold induction signal, CYP2D6 + RAD54: +++ (+++ (3, 4])
[5]; 100 μM, 16 h at 30°C
  GFP fold induction signal, CYP2D6 + RAD54: ++++ (++++ (4, ∞])
[5]; concentration 2.75–11.01 μg/mL
  Genotoxicity result, present study, CYP2D6 + RAD54: +
[6]; 25 μM, 16 h at 30°C
  GFP fold induction signal, NCs: – (Negative (≤1.3 GFP fold induction),–)
[6]; 50 μM, 16 h at 30°C
  GFP fold induction signal, NCs: – (Negative (≤1.3 GFP fold induction),–)
[6]; 100 μM, 16 h at 30°C
  GFP fold induction signal, NCs: – (Negative (≤1.3 GFP fold induction),–)

## c1ccc2c(c1)cc1ccc3cccc4ccc2c1c34 [Benzo(a)pyrene, benzo(a)pyrene]
[1]
  Genotoxicity result, present study, CYP3A4 + RAD54: +
[1]; 10 μM, 16 h at 30°C
  GFP fold induction signal, CYP3A4 + RAD54: + (positive (>1.3 GFP fold induction), + (1.3, 2])
[1]; 20 μM, 16 h at 30°C
  GFP fold induction signal, CYP3A4 + RAD54: + (positive (>1.3 GFP fold induction), + (1.3, 2])
[1]; 40 μM, 16 h at 30°C
  GFP fold induction signal, CYP3A4 + RAD54: ++ (++ (2, 3])
[2]; 10 μM, 16 h at 30°C
  GFP fold induction signal, RAD54: – (Negative (≤1.3 GFP fold induction),–)
[2]; 20 μM, 16 h at 30°C
  GFP fold induction signal, RAD54: – (Negative (≤1.3 GFP fold induction),–)
[2]; 40 μM, 16 h at 30°C
  GFP fold induction signal, RAD54: – (Negative (≤1.3 GFP fold induction),–)
[3]; 10 μM, 16 h at 30°C
  GFP fold induction signal, CYP2B6 + RAD54: – (Negative (≤1.3 GFP fold induction),–)
[3]; 20 μM, 16 h at 30°C
  GFP fold induction signal, CYP2B6 + RAD54: – (Negative (≤1.3 GFP fold induction),–)
[3]; 40 μM, 16 h at 30°C
  GFP fold induction signal, CYP2B6 + RAD54: – (Negative (≤1.3 GFP fold induction),–)
In vitro
  fold induction: ≤ 1.3
[5]; 10 μM, 16 h at 30°C
  GFP fold induction signal, CYP2D6 + RAD54: – (Negative (≤1.3 GFP fold induction),–)
[5]; 20 μM, 16 h at 30°C
  GFP fold induction signal, CYP2D6 + RAD54: – (Negative (≤1.3 GFP fold induction),–)
[5]; 40 μM, 16 h at 30°C
  GFP fold induction signal, CYP2D6 + RAD54: – (Negative (≤1.3 GFP fold induction),–)
[6]; 10 μM, 16 h at 30°C
  GFP fold induction signal, NCs: – (Negative (≤1.3 GFP fold induction),–)
[6]; 20 μM, 16 h at 30°C
  GFP fold induction signal, NCs: – (Negative (≤1.3 GFP fold induction),–)
[6]; 40 μM, 16 h at 30°C
  GFP fold induction signal, NCs: – (Negative (≤1.3 GFP fold induction),–)

B1: recombinant human CYP2D6 (Homo sapiens) (protein)
chain: MGLEALVPLAVIVAIFLLLVDLMHRRQRWAARYPPGPLPLPGLGNLLHVDFQNTPYCFDQLRRRFGDVFSLQLAWTPVVVLNGLAAVREALVTHGEDTADRPPVPITQILGFGPRSQGVFLARYGPAWREQRRFSVSTLRNLGLGKKSLEQWVTEEAACLCAAFANHSGRPFRPNGLLDKAVSNVIASLTCGRRFEYDDPRFLRLLDLAQEGLKEESGFLREVLNAVPVLLHIPALAGKVLRFQKAFLTQLDELLTEHRMTWDPAQPPRDLTEAFLAEMEKAKGNPESSFNDENLRIVVADLFSAGMVTTSTTLAWGLLLMILHPDVQRRVQQEIDDVIGQVRRPEMGDQAHMPYTTAVIHEVQRFGDIVPLGVTHMTSRDIEVQGFRIPKGTTLITNLSSVLKDEAVWEKPFRFHPEHFLDAQGHFVKPEAFLPFSAGRRACLGEPLARMELFLFFTSLLQHFSFSVPTGQPRPSHHGVFAFLVSPSPYELCAVPR
[10]
  Km: 2.1 µM
  kcat: 4.7 pmol/pmol CYP/min
  kcat/Km: 2.2 μL/pmol CYP/min
